Read-outs that look alike come from different tables or passages of the source.
Assays:
HSP27 [1] = biological target: T1, HSP27 (Homo sapiens, UniProt P04792); assay: Bio-layer interferometry (ForteBio Octet Red 384, biotinylated HSP27 on SSA sensors); assay type: binding
Source text: Bio-layer interferometry is a technique for detecting biomolecular interactions. It is an analytical technique that measures the optical interference of white light which is reflected by two surfaces: in each case, one surface consists of a layer of the immobilized target protein on the tip of the biosensor and one is an internal reference surface. The binding of ligands to the target protein alters the interference pattern and can be measured in real time.
For the measurements, an instrument of the ForteBio Octet Red 384 brand was used. The target protein HSP27 was biotinylated and bound to the appropriate sensors (SSA). […] The purine derivatives of general formula (I) or (II) pre-identified by means of in silico screening are employed for these measurements in a concentration range (KD) of between 333 μmol/L and 10 nmol/L.
For measurements by bio-layer interferometry, biotinylated HSP27 protein was first bound to Super-Streptavidin sensors (SSA, Fortebio). The loaded sensors were then incubated (“quenched”) with biocytin. As reference, unloaded SSA sensors were incubated with biocytin. In the case of a specific binding to HSP27 of the analyte to be measured, the loaded HSP27 sensor generates a stronger signal (response) than the concurrent reference sensor. After the “baseline” has been established by incubation with the reaction buffer (PBST 0.1% Tween 20 plus 3% DMSO), first the association and then the dissociation of the respective analyte is measured in real time. The analytes were measured in increasing concentrations in each case: 1.23-3.7-11.11-33.33-100-300 μM/l.

HSP27 [2] = biological target: T1, HSP27; assay: Capillary electrophoresis of the CS protein precipitates (precipitated citrate synthase as measure of HSP27 inhibition); assay type: biochemical; settings: for times higher activity than BVDU for the inhibition of the HSP27 protein: 120 minutes
Experimental: Since the heat-denatured protein aggregates of the citrate synthase from Example 1 are not water-soluble, these can be separated completely from the supernatant by means of centrifugation at room temperature at 16,000×g, 10 min. By using capillary electrophoresis, the compositions of the separated precipitates can be shown and quantified. The relative quantity of protein of precipitated citrate synthase serves as a measure of the efficacy of the test substances.
In each case, 481 nmol/L HSP27 and 1.44 μmol/L citrate synthase in 40 mmol/L HEPES buffer, pH 7.4, were employed. The relative quantity of protein of the precipitated citrate synthase in each case was normalized using a defined quantity of BSA as internal standard. The relative quantity of protein that precipitated when using 750 μmol/L BVDU was set at 1. The other test substances (2 representatives of phenothiazine derivatives of general formula (V), 2 representatives of purine derivatives of formula (I) or (II)) were each employed at a concentration of 10 μmol/L.
Since the heat-denatured protein aggregates of the citrate synthase from Example 2 are not water-soluble, these can be separated completely from the supernatant by means of centrifugation at room temperature at 16,000×g, 10 min. By using capillary electrophoresis, the compositions of the separated precipitates can be shown and quantified. The relative quantity of protein of precipitated citrate synthase serves as a measure of the efficacy of the test substances.
In each case, 481 nM HSP27 and 1.44 μmol/L citrate synthase in 40 mmol/L HEPES buffer, pH 7.4, were employed. The relative quantity of protein of the precipitated citrate synthase in each case was normalized using a defined quantity of BSA as internal standard. The relative quantity of protein that precipitated when using 750 μmol/L BVDU was set at 1. The other test substances (2 representatives of phenothiazine derivatives of general formula (V), 2 representatives of thymine derivatives of formula (I) or (II)) were employed at a concentration of 10 μmol/L in each case.
Otherwise, the experiments were performed as described above: […]

RPMI-8226 cells = assay: Development of resistance to bortezomib in RPMI-8226 cells; assay type: cell-based
Experimental: The cell line RPMI-8226 (DMSZ 402) is a “multiple myeloma” cell line and was chosen because bortezomib is employed as a standard therapy for multiple myeloma. RPMI-8226 cells respond to bortezomib, express HSP27 and develop resistance to Velcade. RPMI-8226 cells were seeded at a cell count of 100,000 cells/ml in each case and regularly passaged. […] In contrast, for RPMI 8226 cells that were treated with 30 μmol/L BVDU, a final cell count of 160,000 cells/ml was detected whereas the final cell count for the culture without the addition of an HSP27 inhibitor amounted to 350,000 cells/ml. As a control, RPMI 8226 cells were treated with the respective test substances alone, FIG. 4b.

HSP27 [3] = biological target: T1, HSP27; assay: Spectrophotometric protein aggregation assay (citrate synthase heat denaturation, HSP27 chaperone function); assay type: biochemical; settings: 43° C., 500 nm
Experimental: FIG. 1: a spectrophotometric protein aggregation assay at 43° C., a wavelength of 500 nm and a concentrations of the proteins: 1.44 μmol/L citrate synthase (CS), 481 nmol/L HSP27 (HSP) in a 40 mmol/L HEPES buffer (pH 7.4) during treatment with 14 or 28 μmol/L 2-(3-trichlorovinylphenylamino)-1,9-dihydropurin-6-one (CS+HSP+test substance no. 2), with 750 μmol/L BVDU (CS+HSP+BVDU) and without (CS+HSP; reference);
A known client protein (=substrate on which HSP27 acts as a chaperone) of HSP27 is citrate synthase. Citrate synthase is denatured when the temperature increases to 43° C. This heat denaturation is prevented or delayed by the presence of HSP27 [Jakob U, 1993]. By adding the novel active ingredients, their efficacy can thus be measured through the inhibition of the HSP27 chaperone function.
To determine the activity (i.e. the effect on the aggregation behaviour of the citrate synthase (CS) after thermal incubation) of 2-(3-trichlorovinylphenylamino)-1,9-dihydropurin-6-one in comparison to BVDU, four different batches containing 1.44 μmol/L CS, 481 nmol/L HSP27 (HSP) in a 40 mmol/L HEPES buffer (pH 7.4) were prepared and BVDU (750 μmol/L) or various concentrations of 2-(3-trichlorovinylphenylamino)-1,9-dihydropurin-6-one (14 μmol/L; 28 μmol/L) were added. The samples were then incubated at 43° C. and the aggregation behaviour of the CS was monitored in a spectrometer (PerkinElmer LS55, PerkinElmer Inc.) at a wavelength of 500 nm.
It can be seen from FIG. 1 that the protein citrate synthase (graph CS alone) is denatured by increasing the temperature to 43° C. and forms aggregates. The aggregation is measured in the spectrometer at 500 nm (light scattering by protein aggregates). The presence of HSP27 (HSP) counteracts the aggregation (cf. graph, CS+HSP). Since the addition of the test substances (BVDU and 2-(3-trichlorovinylphenylamino)-1,9-dihydropurin-6-one) inhibits the chaperone function of HSP27, the activity of the respective test substance can be determined by measuring the aggregation behaviour of the CS.

U937 cells = assay: Development of resistance to bortezomib in U937 cells; assay type: cell-based; settings: Examples 17/18: bortezomib 0.1-0.5 ng/ml, plus 0.75 μmol/L inhibitor
Experimental: For this purpose, U937 cells (histiocytic lymphoma) were cultured in DMEM culture medium (+10% FCS) at 37° C., 5% CO2 in an H2O-saturated atmosphere. 100,000 cells/ml were seeded and incubated with the cytostatic agent bortezomib (0.1 ng/ml) and the respective test substance (dosage in the current experiment: 1 μM/L acepromazine). The reference substance, BVDU, was employed at a concentration of 30 μM/L. The cells were in each case passaged before the cell count reached 1,000,000 cells/ml. At each passage, 100,000 cells/ml were again seeded and the dose of the cytostatic agent bortezomib was increased stepwise (0.1 ng/mL or 0.05 ng/mL). The concentration of the test substances remained constant. As a result of the stepwise increase in the dosage of the cytostatic agent, resistance developed in the U937 cells. The development of resistance is prevented or inhibited in the case of a positively tested HSP27 inhibitor. The experiments from Example 6 were repeated in the same way, wherein U937 cells (histiocytic lymphoma) are cultured in DMEM culture medium (+10% FCS) at 37° C., 5% CO2 in an H2O— saturated atmosphere. 100,000 cells/ml were seeded and incubated with an initial concentration of 0.2 ng/ml of the cytostatic agent bortezomib and both without an inhibitor and with acepromazine as an HSP27 inhibitor at a concentration of 1 μM/L. The reference substance, BVDU, was employed at a concentration of 30 μM/L. The cells were passaged in each case before the cell count reached 1,000,000 cells/ml. At each passage, 100,000 cells/ml were again seeded and the dose of the cytostatic agent bortezomib was increased stepwise by 0.1 ng/mL. The concentration of the test substance and the reference substance remained constant. As a result of the stepwise increase in the dosage of the cytostatic agent, resistance developed in the U937 cells. The development of resistance is prevented or inhibited in the case of a positively tested HSP27 inhibitor. The cell line U-937 is a histiocytic lymphoma (DSMZ ACC 5). This cell line also responds to treatment with bortezomib, expresses HSP27 and develops resistance to bortezomib. Bortezomib is not the standard therapy for this lymphoma, but is being discussed as a possible therapeutic agent. U-937 cells were seeded with a cell count of 100,000 cells/ml in each case and regularly passaged. […] At the end of the experiment, 70,000 living cells per ml medium could be detected. For the treatment with 30 μmol/L BVDU, a final cell count of 250,000 cells/ml was detected whereas the final cell count in the culture without the addition of an HSP27 inhibitor amounted to 450,000 cells/ml. As a control, U-937 cells were treated with the respective test substances alone, FIG. 10b.

[4] = cited from earlier work
[5] = analytes 1.23-300 μM/l, PBST 0.1% Tween 20 plus 3% DMSO, read-out: Dissociation constant KD
[6] = 10 μmol/L, 43° C. for 120 minutes, 750 μmol/L BVDU set at 1
[7] = bortezomib 0.075-0.275 ng/ml, plus 1 μmol/L inhibitor
[8] = bortezomib 0.1-0.3 ng/ml, plus 1 μM inhibitor
[9] = bio-layer interferometry, read-out: KD

T1 sequence (P04792 whole entry): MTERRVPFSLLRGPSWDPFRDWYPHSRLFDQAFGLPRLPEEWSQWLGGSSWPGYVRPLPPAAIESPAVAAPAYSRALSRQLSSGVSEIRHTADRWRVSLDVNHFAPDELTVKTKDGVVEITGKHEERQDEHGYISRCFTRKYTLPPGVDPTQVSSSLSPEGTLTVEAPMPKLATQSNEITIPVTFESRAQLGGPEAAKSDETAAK

Compound | Kd (HSP27 [1]; [5]) | Rel. quantity of protein prec. CS (HSP27 [2]; [6]) | times higher activity than BVDU for the inhibition of the HSP27 protein (HSP27 [2]; 10 μmol/L) | development of resistance to bortezomib (RPMI-8226 cells; [7]) | development of resistance to bortezomib (RPMI-8226 cells; [8]) | Kd (HSP27 [1]; [9]) | further results
Cc1cn(CC=CCNC(=O)C2c3ccccc3Oc3ccccc32)c(=O)[nH]c1=O [9H-xanthene-9-carboxylic acid [4-(5-methyl-2,4-dioxo-3,4-dihydro-2H-pyrimidin-1-yl)-but-2-enyl]amide] | 267 µM | 0.65 | 49 times | significantly inhibited | – | – | –
O=c1[nH]c(Nc2cccc(C(Cl)=C(Cl)Cl)c2)nc2[nH]cnc12 [2-(3-trichlorovinylphenylamino)-1,9-dihydropurin-6-one] | – | 0.71 | 53 times | – | significantly inhibited | – | Inhibition of HSP27 chaperone function (CS aggregation), effect versus 750 μmol/L BVDU (HSP27 [3]; 14 μmol/L): comparable effect; Inhibition of HSP27 chaperone function (CS aggregation), effect versus 750 μmol/L BVDU (HSP27 [3]; 28 μmol/L): significantly more pronounced effect
Cc1cn(CC=CCNC(=O)Cc2ccc(-c3ccccc3)cc2)c(=O)[nH]c1=O [2-biphenyl-4-yl-N-[4-(5-methyl-2,4-dioxo-3,4-dihydro-2H-pyrimidin-1-yl)-but-2-enyl]-acetamide] | 424 µM | 0.81 | 61 times | significantly inhibited | – | – | –
CN(C)CCCN1c2ccccc2Sc2ccc(Cl)cc21 [Chlorpromazine, reference compound] | – | – | – | – | – | 770 µM | development of resistance to bortezomib (RPMI-8226 cells; bortezomib 0.2-0.4 ng/ml, plus 0.5 μmol/L inhibitor): significantly inhibited
CCCCc1ccc(Nc2nc3c(ncn3COCCO)c(=O)[nH]2)cc1 [2-(4-butylphenylamino)-9-(2-hydroxyethoxymethyl)-1,9-dihydropurin-6-one] | – | 0.92 | 69 times | – | significantly inhibited | 15 µM | Efficacy compared with BVDU (HSP27 [2]; 10 μmol/L vs 750 μmol/L BVDU, 43° C. for 120 minutes): 69.0 x; development of resistance to bortezomib (U937 cells): significantly inhibited
O=c1[nH]c(=O)n([C@H]2C[C@H](O)[C@@H](CO)O2)cc1/C=C/Br [BVDU, (E)-5-(2-bromovinyl)-2′-deoxyuridine, reference compound] | – | – | – | – | – | – | Inhibition of HSP27 chaperone function (CS aggregation) (HSP27 [3]; 750 μmol/L): partially cancels the chaperone function of HSP27; Rel. quantity of protein prec. CS (HSP27 [2]; 750 μmol/L, 43° C. for 70 minutes, set at 1): 1; Rel. quantity of protein prec. CS (HSP27 [2]; 750 μmol/L, 43° C. for 120 minutes, set at 1): 1; tolerability in patients ([4]; increased administered dose of 760 mg/day): proved disadvantageous for low-weight patients; safety and efficacy in patients ([4]; oral, administered dose of 500 mg/day): works safely and efficiently
